Reference: patent US11649236B2, “Polycyclic carbamoylpyridone derivative” (Shionogi & Co., Ltd., priority 2018, dated 2023)

System: HIV
Test: Anti-HIV activity (MT-4 cells, MTT)
Format: cell-based
Settings: Human immunodeficiency virus 1, MT4, 96 h, cultured 4 days
Description: Serial dilutions of a test sample were prepared in a 96-well microplate (50 μL/well). 2.5×10^5 cells/mL of a MT-4 cell suspension was dispensed at 100 μL/well to the plate containing the test sample. Then, an HIV virus solution was dispensed at 50 μL/well. The plate was mixed with a plate mixer and cultured for 4 days in a CO2 incubator. An MTT (3-(4,5-dimethylthiazol-2-yl)-2,5-diphenyltetrazolium bromide) solution was dispensed at 30 μL/well. The plate was reacted for 1 hour in a CO2 incubator. 150 μL of the supernatant was removed from each well so as not to take up the cells. 150 μL of a cell lysis solution was added to each well and well mixed with a plate mixer until the cells were completely lysed. The absorbance of the mixed plate was measured at two wavelengths of 560 nm and 690 nm with a microplate reader.

SMILES	EC50
CCN1C(=O)c2c(O)c(=O)c(C(=O)NCc3c(F)cc(F)cc3OC)cn2N2CCCC[C@@H]12 [II-035]	1.3 nM
C[C@@H]1CCN2[C@@H](C1)N(C)C(=O)c1c(O)c(=O)c(C(=O)NCc3cccc(Cl)c3F)cn12 [II-036]	3.8 nM
CCN1C(=O)c2c(O)c(=O)c(C(=O)NCc3ccc(F)cc3F)cn2N2C[C@H]3C[C@H](C3)[C@@H]12 [II-037]	0.64 nM
CCN1C(=O)c2c(O)c(=O)c(C(=O)NCc3ccc(F)cc3F)cn2N2[C@@H](COC)CC[C@@H]12 [II-038]	2 nM
CCN1C(=O)c2c(O)c(=O)c(C(=O)NCc3ccc(F)cc3F)cn2N2CCC(C)(C)C[C@@H]12 [II-039]	2.9 nM
C[C@H](N1C(=O)c2c(O)c(=O)c(C(=O)NCc3ccc(F)cc3F)cn2N2CCCC[C@@H]12)C(F)(F)F [II-043]	1.4 nM
CCN1C(=O)c2c(O)c(=O)c(C(=O)NCc3c(F)cc(F)cc3F)cn2N2CC[C@@H](C)C[C@@H]12 [II-044]	0.84 nM
CN1C(=O)c2c(O)c(=O)c(C(=O)NCc3ccc(Cl)cc3F)cn2N2CCCC[C@@H]12 [II-045]	2 nM
C[C@@H]1CC[C@H]2N(C)C(=O)c3c(O)c(=O)c(C(=O)NCc4cccc(Cl)c4F)cn3N12 [II-047]	0.57 nM
CCN1C(=O)c2c(O)c(=O)c(C(=O)NCc3c(F)ccc(C#N)c3F)cn2N2CCCC[C@@H]12 [II-050]	2.8 nM
CCN1C(=O)c2c(O)c(=O)c(C(=O)NCc3ccc(F)cc3F)cn2N2C[C@H](C)CC[C@@H]12 [II-052]	0.62 nM
CCN1C(=O)c2c(O)c(=O)c(C(=O)NCc3c(F)cc(F)cc3F)cn2N2[C@H](C)CCC[C@@H]12 [II-053]	1.4 nM
Cc1c(F)ccc(CNC(=O)c2cn3c(c(O)c2=O)C(=O)N(C)[C@@H]2CCCCN23)c1F [II-054]	0.34 nM
CCN1C(=O)c2c(O)c(=O)c(C(=O)NCc3ccc(F)cc3F)cn2N2CC[C@H](COC)C[C@@H]12 [II-055]	0.58 nM
CCN1C(=O)c2c(O)c(=O)c(C(=O)NCc3ccc(F)nc3F)cn2N2C[C@@H]3CC[C@@H](C3)[C@@H]12 [II-056]	0.83 nM
CCN1C(=O)c2c(O)c(=O)c(C(=O)NCc3ccc(F)nc3F)cn2N2CCCC[C@@H]12 [II-057]	1.7 nM
C[C@H]1CCN2[C@@H](C1)N(C)C(=O)c1c(O)c(=O)c(C(=O)NCc3cccc(Cl)c3F)cn12 [II-058]	0.79 nM
CCN1C(=O)c2c(O)c(=O)c(C(=O)NCc3ccc(F)cc3F)cn2N2C[C@H](OC)CC[C@@H]12 [II-059]	0.66 nM
C[C@H]1CCN2[C@@H](C1)N(C)C(=O)c1c(O)c(=O)c(C(=O)NCc3ccc(Cl)cc3F)cn12 [II-061]	3.4 nM
CCN1C(=O)c2c(O)c(=O)c(C(=O)NCc3ccnc(Cl)c3F)cn2N2CCCC[C@@H]12 [II-062]	3.2 nM
CN1C(=O)c2c(O)c(=O)c(C(=O)NCc3cccc(Cl)c3F)cn2N2Cc3ccccc3[C@@H]12 [II-063]	3.6 nM
CC(C)N1C(=O)c2c(O)c(=O)c(C(=O)NCc3c(F)cc(F)cc3F)cn2N2CC[C@@H](C)C[C@@H]12 [II-064]	1.2 nM
C[C@H]1C[C@H]2N(C)C(=O)c3c(O)c(=O)c(C(=O)NCc4ccc(Cl)cc4F)cn3N2C1 [II-065]	4.9 nM
CCN1C(=O)c2c(O)c(=O)c(C(=O)NCc3ccc(F)cc3F)cn2N2CCC3(C[C@@H]12)OCCO3 [II-067]	0.62 nM

SMILES	EC50
CCN1C(=O)c2c(O)c(=O)c(C(=O)NCc3ccc(F)cc3F)cn2N2[C@H](C)CC[C@@H]12 [II-068]	0.61 nM
CCN1C(=O)c2c(O)c(=O)c(C(=O)NCc3c(F)cc(F)cc3F)cn2N2CC[C@H](C)C[C@@H]12 [II-069]	0.9 nM
CCN1C(=O)c2c(O)c(=O)c(C(=O)NCc3ccc(F)cc3F)cn2N2CC[C@H](C)[C@@H]12 [II-073]	0.25 nM
CN1C(=O)c2c(O)c(=O)c(C(=O)NCc3ccc(F)c(F)c3F)cn2N2CCCC[C@@H]12 [II-074]	0.71 nM
C[C@@H]1CCN2[C@@H](C1)N(C)C(=O)c1c(O)c(=O)c(C(=O)NCc3ccc(Cl)cc3F)cn12 [II-075]	6.3 nM
CCN1C(=O)c2c(O)c(=O)c(C(=O)NCc3ncc(Cl)cc3F)cn2N2CCCC[C@@H]12 [II-076]	3.3 nM
CCN1C(=O)c2c(O)c(=O)c(C(=O)NCc3ccc(F)cc3F)cn2N2[C@@H]3CCC[C@@H]3CC[C@@H]12 [II-078]	1.1 nM
CCN1C(=O)c2c(O)c(=O)c(C(=O)NCc3ccc(F)cc3F)cn2N2Cc3ccc(F)cc3[C@@H]12 [II-079]	0.66 nM
CCN1C(=O)c2c(O)c(=O)c(C(=O)NCc3c(F)ccc(F)c3F)cn2N2CCCC[C@@H]12 [II-080]	0.58 nM
CCN1C(=O)c2c(O)c(=O)c(C(=O)NCc3ccc(F)nc3F)cn2N2CC[C@H](C)C[C@@H]12 [II-081]	3.1 nM
CCN1C(=O)c2c(O)c(=O)c(C(=O)NCc3c(F)cccc3F)cn2N2CCCC[C@@H]12 [II-082]	0.74 nM
CCN1C(=O)c2c(O)c(=O)c(C(=O)NCc3ccc(F)cc3F)cn2N2C[C@@H]3C[C@@H]3[C@@H]12 [II-083]	0.95 nM
CCN1C(=O)c2c(O)c(=O)c(C(=O)NCc3ccc(F)cc3F)cn2N2Cc3ccc(Cl)cc3[C@@H]12 [II-084]	1.8 nM
CCN1C(=O)c2c(O)c(=O)c(C(=O)NCc3ccc(F)cc3F)cn2N2CCC(C)(C)[C@@H]12 [II-085]	1.3 nM
C[C@@H]1CCN2[C@@H](C1)N(C)C(=O)c1c(O)c(=O)c(C(=O)NCc3ccc(F)cc3F)cn12 [II-086]	1 nM
CCN1C(=O)c2c(O)c(=O)c(C(=O)NCc3ccc(F)cc3F)cn2N2CCN(CCOC)C[C@@H]12 [II-088]	3.1 nM
CC[C@@H]1CC[C@H]2N(CC)C(=O)c3c(O)c(=O)c(C(=O)NCc4ccc(F)cc4F)cn3N12 [II-089]	0.94 nM
C[C@@H]1CCC[C@H]2N(C)C(=O)c3c(O)c(=O)c(C(=O)NCc4ccc(Cl)cc4F)cn3N12 [II-091]	4.1 nM
CCN1C(=O)c2c(O)c(=O)c(C(=O)NCc3ccccc3F)cn2N2CCCC[C@@H]12 [II-092]	0.33 nM
C[C@@H]1CCC[C@H]2N(C)C(=O)c3c(O)c(=O)c(C(=O)NCc4c(F)cc(F)cc4F)cn3N12 [II-094]	0.57 nM
CCN1C(=O)c2c(O)c(=O)c(C(=O)NCc3ncc(F)cc3Cl)cn2N2CCCC[C@@H]12 [II-095]	1.9 nM
CCN1C(=O)c2c(O)c(=O)c(C(=O)NCc3ccc(F)cc3F)cn2N2CCOCC[C@@H]12 [II-096]	0.68 nM
CCN1C(=O)c2c(O)c(=O)c(C(=O)NCc3c(F)cc(F)cc3F)cn2N2Cc3ccccc3[C@@H]12 [II-097]	1 nM
CCN1C(=O)c2c(O)c(=O)c(-c3nnc(Cc4ncc(Cl)cc4F)s3)cn2N2CCCC[C@@H]12 [II-098]	4 nM

SMILES	EC50
CCN1C(=O)c2c(O)c(=O)c(C(=O)NCc3ccc(F)cc3F)cn2N2CCN(Cc3ccccc3)C[C@@H]12 [II-100]	3 nM
CCN1C(=O)c2c(O)c(=O)c(C(=O)NCc3ccc(F)cc3F)cn2N2CCN(CC3CC3)C[C@@H]12 [II-101]	1.6 nM
CN1C(=O)c2c(O)c(=O)c(C(=O)NCc3ccnc(Cl)c3F)cn2N2CCCC[C@@H]12 [II-103]	3.7 nM
CCN1C(=O)c2c(O)c(=O)c(C(=O)NCc3ccc(F)cc3F)cn2N2CCCOC[C@@H]12 [II-107]	2.3 nM
CCN1C(=O)c2c(O)c(=O)c(C(=O)NCc3ccc(F)cc3F)cn2N2CC=C[C@@H]12 [II-109]	2.4 nM
CCN1C(=O)c2c(O)c(=O)c(C(=O)NCc3ccc(F)cc3F)cn2N2CCN(C(=O)NC)C[C@@H]12 [II-110]	2.1 nM
C[C@H]1CCN2[C@@H](C1)N(C)C(=O)c1c(O)c(=O)c(C(=O)NCc3ccc(F)cc3F)cn12 [II-113]	0.72 nM
CCN1C(=O)c2c(O)c(=O)c(C(=O)NCc3ccc(F)cc3F)cn2N2CC[C@H](C(F)(F)F)C[C@@H]12 [II-114]	1.5 nM
CN1C(=O)c2c(O)c(=O)c(C(=O)NCc3c(F)cc(F)cc3F)cn2N2C[C@@H]3CC[C@@H](O3)[C@@H]12 [II-115]	0.87 nM
CN1C(=O)c2c(O)c(=O)c(C(=O)NCc3ccc(F)cc3F)cn2N2Cc3ccccc3[C@@H]12 [II-116]	0.68 nM
C[C@H]1CC[C@H]2N(C)C(=O)c3c(O)c(=O)c(C(=O)NCc4ccc(F)cc4F)cn3N2C1 [II-117]	2 nM
CCN1C(=O)c2c(O)c(=O)c(C(=O)NCc3ccc(F)cc3F)cn2N2C3CCC(CC3)[C@@H]12 [II-118]	2.2 nM
COC[C@@H]1CC[C@H]2N(C)C(=O)c3c(O)c(=O)c(C(=O)NCc4ccc(F)cc4F)cn3N12 [II-119]	0.54 nM
CN1C(=O)c2c(O)c(=O)c(C(=O)NCc3c(F)cc(F)cc3F)cn2N2Cc3ccccc3[C@@H]12 [II-120]	0.22 nM
C[C@H]1C[C@H]2N(C)C(=O)c3c(O)c(=O)c(C(=O)NCc4ccc(F)cc4F)cn3N2C1 [II-121]	0.71 nM
CN1C(=O)c2c(O)c(=O)c(C(=O)NCc3ccc(F)cc3F)cn2N2C[C@@H]3CC[C@@H](C3)[C@@H]12 [II-122]	0.61 nM
CCN1C(=O)c2c(O)c(=O)c(C(=O)NCc3ccc(F)cc3F)cn2N2C[C@H](C)C[C@@H]12 [II-123]	1.6 nM
CCN1C(=O)c2c(O)c(=O)c(C(=O)NCc3ccc(F)cc3F)cn2N2Cc3cc(Cl)ccc3[C@@H]12 [II-124]	2.6 nM
CCN1C(=O)c2c(O)c(=O)c(C(=O)NCc3ccc(F)cc3F)cn2N2CCN(C(=O)OC)C[C@@H]12 [II-125]	1.3 nM
CCN1C(=O)c2c(O)c(=O)c(C(=O)NCc3ccc(F)cc3F)cn2N2C[C@@H](OC)CC[C@@H]12 [II-126]	0.45 nM
CCN1C(=O)c2c(O)c(=O)c(C(=O)NCc3ccccc3OC(F)F)cn2N2CCCC[C@@H]12 [II-127]	3.6 nM
CCN1C(=O)c2c(O)c(=O)c(C(=O)NCc3ccc(F)cc3F)cn2N2Cc3cc(F)ccc3[C@@H]12 [II-128]	0.72 nM
CCN1C(=O)c2c(O)c(=O)c(C(=O)NCc3ccccc3OC)cn2N2CCCC[C@@H]12 [II-129]	1.9 nM
